Experimental data: patent US20210207188A1, “BETA-LACTAM COMPOUNDS AND METHODS OF USE THEREOF” (priority 2018, published 2021)

How the values were obtained:
[1] = target: T1, IMP-1 (Serratia marcescens, UniProt P52699); assay type: biochemical; conditions: IMP-1; for fluorescence signal over time: probe 2.0 μM (MCW-002 1.1 μM, MCW-011 0.5 μM), PBS
T1 construct: His tag; made in house; host or cells: Escherichia coli
Description: (§1) Recombinant his-tagged beta-lactamases, including NDM-1, IMP-1, KPC-2, VIM-2 and OXA-48 were overexpressed in Escherichia coli. The enzymes were purified using HisTrap Ni-NTA columns. AmpC and TEM were purchased from commercial sources.
(§2) The fluorescence-based activity assays were performed in phosphate-buffer saline. The concentration of some of the compounds were determined by boiling the compounds in PBS solution until fluorescence signal was saturated. The amount of released fluorophore was quantified via fluorescence spectroscopy by comparing to a corresponding calibration curve.

[2] = target: T2, KPC-2 (Klebsiella pneumoniae, UniProt Q9F663); assay type: biochemical; conditions: for fluorescence signal over time: probe 2.0 μM (MCW-002 1.1 μM, MCW-011 0.5 μM), PBS
T2 construct: His tag; made in house; host or cells: Escherichia coli
Description: as §1, §2

[3] = target: T3, NDM-1 (Klebsiella pneumoniae, UniProt C7C422); assay type: biochemical; conditions: for fluorescence signal over time: probe 2.0 μM (MCW-002 1.1 μM, MCW-011 0.5 μM), PBS
T3 construct: His tag; made in house; host or cells: Escherichia coli
Description: as §1, §2

[4] = test system: AmpC; assay: Activity of beta-lactamases towards probes (fluorescence-based activity assay), AmpC; assay type: biochemical; conditions: probe 2.0 μM (MCW-002 1.1 μM, MCW-011 0.5 μM), PBS
Description: as §1, §2

[5] = target: T4, TEM (Escherichia coli, UniProt P62593); assay: Activity of beta-lactamases towards probes (fluorescence-based activity assay), TEM; assay type: biochemical; conditions: probe 2.0 μM (MCW-002 1.1 μM, MCW-011 0.5 μM), PBS
T4 construct: purchased
Description: as §1, §2

[6] = test system: beta-lactamases, including NDM-1, IMP-1, VIM-2, KPC-2, OXA-48, AmpC, and TEM; assay: Fluorescence-based activity assay, whole panel of tested beta-lactamases; assay type: biochemical; conditions: for specificity among the tested beta-lactamases: conclusion from fluorescence signals; for changes in the fluorescence signal with the tested beta-lactamases: probe 2.0 μM, MCW-010 within 20 minutes
Description: as §1, §2
Among the tested beta-lactamases, NDM-1, IMP-1, VIM-2, KPC-2 and OXA-48 are carbapenemases, whereas AmpC and TEM are not. Nitrocefin was used as a control to test the activity of the beta-lactamases because it can be hydrolyzed by a wide range of beta-lactamases.

[7] = target: T5, OXA-48 (Klebsiella pneumoniae, UniProt Q6XEC0); assay type: biochemical; conditions: for fluorescence signal over time: probe 2.0 μM (MCW-011 0.5 μM), PBS
T5 construct: His tag; made in house; host or cells: Escherichia coli
Description: as §1, §2

[8] = target: T6, VIM-2 (Escherichia coli, UniProt Q5U7L7); assay type: biochemical; conditions: for fluorescence signal over time: probe 2.0 μM (MCW-011 0.5 μM), PBS
T6 construct: His tag; made in house; host or cells: Escherichia coli
Description: as §1, §2

[9] = test system: clinical isolates (CPE, Carbapenemase Producing Enterobacteriaceae, and Non CPE strains); assay: Selectivity of probes with clinical isolates in lysis buffer (visible light and UV light); assay type: cell-based; conditions: probe 10 μM
Description: The selectivity of some probes were evaluated with clinical isolates. The carbapenemases presence in the bacteria (CPE, i.e., Carbapenemase Producing Enterobacteriaceae) were verified by PCR (Polymerase Chain Reaction). 1 μL loop-full of each test bacterium from overnight-cultured LB agar plate were added to 100 μL PBS buffer with 0.5% CHAPS. The bacteria were vortexed to give a homogenious suspension and incubated for 15 min. To each of the bacteria-lysis buffer mixture (20 μL) were added quick test reagents (Probes (Final concentration=10 μM), CarbaNP solution A and CarbaNP solution B). CarbaNP solutions A and B were freshly prepared according to CLSI protocol, where solution A contains 10 mM zinc sulphate and phenol red buffer at pH=7.8±0.1 and solution B was a mixture of solution A with 3 mg/mL imipenem.

Row | Compound | fluorescence signal over time [1] | fluorescence signal over time [2] | fluorescence signal over time [3] | fluorescence signal over time [4] | fluorescence signal over time [5] | specificity among the tested beta-lactamases [6] | fluorescence signal over time [8] | changes in the fluorescence signal with the tested beta-lactamases [6] | other results
1 | CC[Si](CC)(CC)O[C@H](C)[C@H]1C(=O)N2C(C(=O)O)=C(/C=C/COc3ccc(COc4ccc5nc6ccc(=O)cc-6oc5c4)cc3OC)C[C@H]12 [MCW-002, (5R,6S)-3-((E)-3-(2-methoxy-4-(((3-oxo-3H-phenoxazin-7-yl)oxy)methyl)phenoxy)prop-1-en-1-yl)-7-oxo-6-((R)-1-((triethylsilyl)oxy)ethyl)-1-azabicyclo[3.2.0]hept-2-ene-2-carboxylic acid] | pronounced increase in the fluorescent signal | minimal changes in the fluorescent signal | pronounced increase in the fluorescent signal | minimal changes in the fluorescent signal | minimal changes in the fluorescent signal | specific for NDM-1 and IMP-1, especially NDM-1 |  |  | relative rate of hydrolysis reaction [1]: slower compared to the reaction with NDM-1
2 | C[C@@H](O)[C@H]1C(=O)N2C(C(=O)O)=C(c3ccc(COc4ccc5nc6ccc(=O)cc-6oc5c4)cc3)C[C@H]12 [MCW-008, (5R,6S)-6-((R)-1-hydroxyethyl)-7-oxo-3-(4-(((3-oxo-3H-phenoxazin-7-yl)oxy)methyl)phenyl)-1-azabicyclo[3.2.0]hept-2-ene-2-carboxylic acid] | increase in the fluorescent signal | increase in the fluorescent signal | increase in the fluorescent signal | minimal changes in the fluorescent signal | minimal changes in the fluorescent signal | specific for carbapenemases | increase in the fluorescent signal |  | fluorescence signal over time [7]: increase in the fluorescent signal
3 | C[C@@H](O)[C@H]1C(=O)N2C(C(=O)O)=C(c3ccc(COc4ccc5nc6ccc(=O)cc-6oc5c4)cc3[N+](=O)[O-])C[C@H]12 [MCW-010, (5R,6S)-6-((R)-1-hydroxyethyl)-3-(2-nitro-4-(((3-oxo-3H-phenoxazin-7-yl)oxy)methyl)phenyl)-7-oxo-1-azabicyclo[3.2.0]hept-2-ene-2-carboxylic acid] |  |  |  |  |  |  |  | did not exhibited changes in the fluorescence signal | 
4 | COc1ccc(-c2c3ccc(=O)cc-3oc3cc(OCc4ccc(OC/C=C/C5=C(C(=O)O)N6C(=O)[C@H]([C@@H](C)O)[C@H]6S5)c(OC)c4)ccc23)c(C)c1 [MCW-011, (5R,6S)-6-((R)-1-hydroxyethyl)-3-((E)-3-(2-methoxy-4-(((9-(4-methoxy-2-methylphenyl)-3-oxo-3H-xanthen-6-yl)oxy)methyl)phenoxy)prop-1-en-1-yl)-7-oxo-4-thia-1-azabicyclo[3.2.0]hept-2-ene-2-carboxylic acid] | increase in the fluorescent signal | increase in the fluorescent signal | increase in the fluorescent signal | minimal changes in the fluorescent signal | minimal changes in the fluorescent signal | specific for carbapenemases | increase in the fluorescent signal |  | fluorescence signal over time [7]: increase in the fluorescent signal
5 | COc1ccc(-c2c3ccc(=O)cc-3oc3cc(OCc4ccc(OC/C=C/C5=C(C(=O)O)N6C(=O)[C@H]([C@@H](C)O)[C@H]6C5)c(OC)c4)ccc23)c(C)c1 [MCW-004, (5R,6S)-6-((R)-1-hydroxyethyl)-3-((E)-3-(2-methoxy-4-(((9-(4-methoxy-2-methylphenyl)-3-oxo-3H-xanthen-6-yl)oxy)methyl)phenoxy)prop-1-en-1-yl)-7-oxo-1-azabicyclo[3.2.0]hept-2-ene-2-carboxylic acid] |  |  |  |  |  |  |  |  | 3S/k (detection limit of the probe towards the carbapenemase) [1]: 0.328 pM; Kcat ([1]; Michaelis-Menten kinetics): 47.3 ± 3.34 s⁻¹; Km ([1]; Michaelis-Menten kinetics): 1.74 ± 0.29 µM; 3S/k (detection limit of the probe towards the carbapenemase) [2]: 5.28 pM; Kcat ([2]; Michaelis-Menten kinetics): 2.36 ± 0.22 s⁻¹; Km ([2]; Michaelis-Menten kinetics): 3.41 ± 0.59 µM; 3S/k (detection limit of the probe towards the carbapenemase) [3]: 0.546 pM; Kcat ([3]; Michaelis-Menten kinetics): 23.5 ± 0.98 s⁻¹; Km ([3]; Michaelis-Menten kinetics): 1.57 ± 0.16 µM; 3S/k (detection limit of the probe towards the carbapenemase) [7]: 24.9 pM; Kcat ([7]; Michaelis-Menten kinetics): 10.2 ± 0.74 s⁻¹; Km ([7]; Michaelis-Menten kinetics): 1.09 ± 0.12 µM; 3S/k (detection limit of the probe towards the carbapenemase) [8]: 5.37 pM; Kcat ([8]; Michaelis-Menten kinetics): 2.28 ± 0.07 s⁻¹; Km ([8]; Michaelis-Menten kinetics): 1.88 ± 0.13 µM; signal with panel of clinical isolates ([9]; incubated for 15 min): observable fluorogenic signal in CPE strains but not the Non CPE strains; signal with panel of clinical isolates ([9]; incubated for 120 min): observable fluorogenic signal in CPE strains but not the Non CPE strains
6 | COC(=O)C1=C(/C=C/COc2ccc(COc3ccc4nc5ccc(=O)cc-5oc4c3)cc2OC)C[C@@H]2[C@@H]([C@@H](C)O)C(=O)N12 [MCW-003, Methyl (5R,6S)-6-((R)-1-hydroxyethyl)-3-((E)-3-(2-methoxy-4-(((3-oxo-3H-phenoxazin-7-yl)oxy)methyl)phenoxy)prop-1-en-1-yl)-7-oxo-1-azabicyclo[3.2.0]hept-2-ene-2-carboxylate] |  |  |  |  |  |  |  | unreactive to the tested beta-lactamases | 
7 | COc1ccc(-c2c3ccc(=O)cc-3oc3cc(OCc4ccc(C5=C(C(=O)O)N6C(=O)[C@H]([C@@H](C)O)[C@H]6C5)cc4)ccc23)c(C)c1 [MCW-009, (5R,6S)-6-((R)-1-hydroxyethyl)-3-(4-(((9-(4-methoxy-2-methylphenyl)-3-oxo-3H-xanthen-6-yl)oxy)methyl)phenyl)-7-oxo-1-azabicyclo[3.2.0]hept-2-ene-2-carboxylic acid] | increase in the fluorescent signal | increase in the fluorescent signal | increase in the fluorescent signal |  |  |  | increase in the fluorescent signal |  | time until hydrolysis reaction complete (fluorescent signal plateaued) ([1]; probe 2.0 μM): > 20 min; time until hydrolysis reaction complete (fluorescent signal plateaued) ([2]; probe 2.0 μM): > 20 min; time until hydrolysis reaction complete (fluorescent signal plateaued) ([3]; probe 2.0 μM): > 20 min; time until hydrolysis reaction complete (fluorescent signal plateaued) ([8]; probe 2.0 μM): > 20 min
8 | COc1cc(COc2ccc3nc4ccc(=O)cc-4oc3c2)ccc1OC/C=C/C1=C(C(=O)N(C)O)N2C(=O)[C@H]([C@@H](C)O)[C@H]2C1 [MCW-006, (5R,6S)-N-hydroxy-6-((R)-1-hydroxyethyl)-3-((E)-3-(2-methoxy-4-(((3-oxo-3H-phenoxazin-7-yl)oxy)methyl)phenoxy)prop-1-en-1-yl)-N-methyl-7-oxo-1-azabicyclo[3.2.0]hept-2-ene-2-carboxamide] |  |  |  |  |  |  |  | unreactive to the tested beta-lactamases | 
